Read-outs that look alike come from different tables or passages of the source.
What was measured:
[1] = nude mice, days 1-4, 15-18 i.p.; cited from earlier work
[2] = preclinical toxicology studies; cited from earlier work
MEXF276 xenograft model = conditions: 60 mg/kg/day i.p. on days 1-5 and 8-12; cited from earlier work
[3] = test system: MEXF276L and MEXF514L cells; assay: Hsp90 expression in whole cell lysates of 17AAG sensitive and resistant melanoma cell lines; type: cell-based, human; conditions: 17AAG at TGI; responsive MEXF276L, not resistant MEXF514L
Description: (§1) Cells were treated at the respective concentrations that cause total growth inhibition (TGI) (Burger et al., 2005). […] Co-localization of proteins results in the occurrence of orange to yellow colors in merged pictures. Bar=15 μm.

MEXF276L cells [4] = assay: Cell cycle distribution, apoptotic sub G1 fraction; type: cell-based, human; conditions: 17AAG at TGI
MEXF276L xenografts = conditions: tumor-bearing mice, MEXF276L and MEXF514L, 24, 48, 72 hrs after 60 mg/kg/d
Description: Approximately 100 μl blood was available through tail vein puncture, the 72 hr time point was collected by exsanguinations/cardiac puncture.

MEXF276L cells [5] = assay: Immunofluorescence localization of Hsp90 isoforms α and β; type: cell-based, human; conditions: sensitive melanoma cells exposed to 17AAG, time course
Description: as §1

Hsp90α = conditions: for plasma Hsp90α at baseline versus after sorafenib alone: day -14 versus day -1, 14 day run in of daily oral sorafenib
Description: Human and xenograft plasma samples of 10 μL were added to sample diluent buffer and assayed in duplicate in the antibody-coated 96-well plate. After incubation at room temperature for one hour, wells were washed 6 times with washing buffer. 100 uL HRP conjugate was added to wells and incubated for one hour. Wells were washed 6 times, 100 uL TMB substrate was added to each well, and the plate was incubated for 20 minutes. Absorbance was measured at 450 nm on a plate reader.

MEXF276L cells [6] = assay: Hsp90 isoforms and MMP2 in serum-free conditioned medium, Western blot; type: cell-based, human
Description: In addition, levels of matrix metalloprotease 2 (MMP2, FIG. 3B), an extracellular client protein of Hsp90α were analyzed.

Q: For `CN(C)/N=N/c1[nH]cnc1C(N)=O` [DTIC], which maximal tolerated dose [1] is on record?
A: 70 mg/kg/day

Q: For `COC1=C2C[C@@H](C)C[C@H](OC)[C@H](O)[C@@H](C)/C=C(\C)[C@H](OC(N)=O)[C@@H](OC)/C=C\C=C(/C)C(=O)NC(=CC1=O)C2=O` [Geldanamycin], which hepatotoxicity [2] is on record?
A: severe hepatotoxicity

Q: Which “growth inhibition compared to control” value (MEXF276 xenograft model) does the source give for `C=CCNC1=C2C[C@@H](C)C[C@H](OC)[C@H](O)[C@@H](C)/C=C(\C)[C@H](OC(N)=O)[C@@H](OC)/C=C\C=C(/C)C(=O)NC(=CC1=O)C2=O` [17AAG, 17-allylamino, 17-demethoxygeldanamycin] here?
A: 92%

Q: What about the “time of actual tumor remissions” value (MEXF276 xenograft model) of the same molecule?
A: 10 to 17 days

Q: What about the tolerability (MEXF276 xenograft model) of the same molecule?
A: well tolerated (no animal death)

Q: What about the “cytoplasmic Hsp90 level” value [3] of the same molecule?
A: loss of cytoplasmic Hsp90

Q: And the “apoptotic cell debris (sub G1 fraction) compared to control cells” value (MEXF276L cells [4])?
A: only seen at 48 hrs

Q: And the “plasma Hsp90α after treatment versus pre 17-AAG” value (MEXF276L xenografts)?
A: increase in plasma Hsp90α in most cases

Q: What about the “localization of Hsp90α and Hsp90β” value (MEXF276L cells [5]) of the same molecule?
A: Hsp90α is lost at 2-24 hrs

Q: What about the “evidence of clinical response in patients with increase in plasma Hsp90α” value (Hsp90α; after 17AAG administration, shrinkage in 2/3, CT attenuation consistent with tumor necrosis in 1 of 3) of the same molecule?
A: 3/3

Q: And the “induction of plasma Hsp90α, pre (day -1) versus post (72 hrs, day 4) treatment” value (Hsp90α; cancer patients, p=0.0287)?
A: induction is significant

Q: What about the “patients with increase in plasma Hsp90α” value (Hsp90α; day four, 72 hrs after first 17AAG dose, after 14 day sorafenib run in) of the same molecule?
A: 3 of 7

Q: What about the “Hsp90α and Hsp90β detected in the medium” value (MEXF276L cells [6]) of the same molecule?
A: increased detection of Hsp90α but not Hsp90β in the medium

Q: What about the “form of extracellular MMP2” value (MEXF276L cells [6]) of the same molecule?
A: shift of the extracellular localized MMP2 from the fully active 66 kd form to the 72 kd latent form

Q: For `CNC(=O)c1cc(Oc2ccc(NC(=O)Nc3ccc(Cl)c(C(F)(F)F)c3)cc2)ccn1` [sorafenib], which “plasma Hsp90α at baseline versus after sorafenib alone” value (Hsp90α) is on record?
A: little difference in plasma Hsp90α

Q: What about the “plasma Hsp90α at baseline versus after sorafenib alone” value (Hsp90α; listed as Bay 43-9006) of the same molecule?
A: no effects on Hsp90α
